In ChEMBL document CHEMBL1201862, “PubChem BioAssay data set” (2004):
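Cells were grown in 96-well plates and exposed to each compound for 48 hours at five concentrations; endpoints were interpolated linearly between bracketing concentrations, or set to the highest concentration if not reached. Abbreviation: GI50, concentration required for 50% inhibition of growth.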 Calls of active or inactive are those of the source. Cut-off read from the data, not from the text of the source: active = GI50 up to about 1.1 µM and inactive = higher.

Experiments:
Test in all cases: inhibition of tumour cell growth, NCI panel, 48 h
786-0 = system: 786-0
A549 = system: A549
ACHN = system: ACHN
DU-145 = system: DU-145
HCC 2998 = system: HCC 2998
HCT-116 = system: HCT-116
HL-60 = system: HL-60
IGROV-1 = system: IGROV-1
MDA-MB-231 = system: MDA-MB-231
Malme-3M = system: Malme-3M
NCI-H23 = system: NCI-H23
NCI/ADR-RES = system: NCI/ADR-RES
RPMI-8226 = system: RPMI-8226
SF-268 = system: SF-268
SR = system: SR
TK-10 = system: TK-10
UACC-257 = system: UACC-257
UO-31 = system: UO-31
KM12 = system: KM12
SNB-75 = system: SNB-75

Compound | GI50 (786-0) | GI50 (A549) | GI50 (ACHN) | GI50 (DU-145) | GI50 (HCC 2998) | GI50 (HCT-116) | GI50 (HL-60) | GI50 (IGROV-1) | GI50 (MDA-MB-231) | GI50 (Malme-3M) | GI50 (NCI-H23) | GI50 (NCI/ADR-RES) | GI50 (RPMI-8226) | GI50 (SF-268) | GI50 (SR) | GI50 (TK-10) | GI50 (UACC-257) | GI50 (UO-31) | GI50 (KM12) | GI50 (SNB-75)
CC(C)(C)OC(=O)NNCC(O)COc1ccccc1 (configuration not stated) | > 100 µM (inactive) | > 100 µM (inactive) | > 100 µM (inactive) | > 100 µM (inactive) | > 100 µM (inactive) | > 100 µM (inactive) | 0.0318 µM (active) | > 100 µM (inactive) | > 100 µM (inactive) | > 100 µM (inactive) | > 100 µM (inactive) | > 100 µM (inactive) | > 100 µM (inactive) | > 100 µM (inactive) | > 100 µM (inactive) | > 100 µM (inactive) | > 100 µM (inactive) | > 100 µM (inactive) |  | 
CCCCCNc1nonc1N | > 100 µM (inactive) | > 100 µM (inactive) | > 100 µM (inactive) | > 100 µM (inactive) | > 100 µM (inactive) | > 100 µM (inactive) |  | > 100 µM (inactive) | > 100 µM (inactive) | > 100 µM (inactive) | > 100 µM (inactive) | > 100 µM (inactive) | > 100 µM (inactive) | > 100 µM (inactive) | > 100 µM (inactive) | > 100 µM (inactive) | > 100 µM (inactive) | > 100 µM (inactive) | > 100 µM (inactive) | > 100 µM (inactive)
CC1(C)OC2[C@@H](CO[C@@]3([C@@H](O)CCO)OC(C)(C)O[C@@H]23)O1 (some centres not stated) | > 100 µM (inactive) |  | > 100 µM (inactive) | > 100 µM (inactive) | > 100 µM (inactive) | > 100 µM (inactive) | > 100 µM (inactive) | > 100 µM (inactive) | > 100 µM (inactive) |  | > 100 µM (inactive) | > 100 µM (inactive) | > 100 µM (inactive) | > 100 µM (inactive) | > 100 µM (inactive) | > 100 µM (inactive) | > 100 µM (inactive) | > 100 µM (inactive) | > 100 µM (inactive) | > 100 µM (inactive)
O=C(O)C1C2CCC(O2)C1C(=O)Nc1cccc2cccnc12 (configuration not stated) | > 100 µM (inactive) | > 100 µM (inactive) | > 100 µM (inactive) | > 100 µM (inactive) | 31.1 µM (inactive) | > 100 µM (inactive) |  | > 100 µM (inactive) | > 100 µM (inactive) | > 100 µM (inactive) | > 100 µM (inactive) | > 100 µM (inactive) | > 100 µM (inactive) |  | > 100 µM (inactive) | > 100 µM (inactive) | > 100 µM (inactive) | > 100 µM (inactive) | > 100 µM (inactive) | > 100 µM (inactive)
COc1ccc(Nc2nnc(-c3nsc4ccccc34)s2)cc1 | 3.41 µM (inactive) | 27.4 µM (inactive) | 11.1 µM (inactive) | > 100 µM (inactive) | > 56.4 µM (inactive) | 8.55 µM (inactive) | > 70.1 µM (inactive) | > 100 µM (inactive) | 6.5 µM (inactive) |  | > 100 µM (inactive) | 9.71 µM (inactive) | 22.9 µM (inactive) | 33.5 µM (inactive) | 39.9 µM (inactive) | > 49.3 µM (inactive) | > 100 µM (inactive) | 10.2 µM (inactive) | > 100 µM (inactive) | 2.6 µM (inactive)
CC(C)N(C(=O)C12C3(C(=O)C(C)(C)C)C4C5(C#N)C3C1(C(=O)C(C)(C)C)C5C42C(=O)C(C)(C)C)C(C)C (configuration not stated) | > 100 µM (inactive) | > 100 µM (inactive) | > 100 µM (inactive) | > 100 µM (inactive) | > 100 µM (inactive) | > 100 µM (inactive) | > 100 µM (inactive) | > 100 µM (inactive) | > 100 µM (inactive) |  | > 100 µM (inactive) | > 100 µM (inactive) |  | > 100 µM (inactive) | > 100 µM (inactive) | > 100 µM (inactive) | > 100 µM (inactive) | > 100 µM (inactive) | > 100 µM (inactive) | 14.1 µM (inactive)
NNC(=O)CCC(NS(=O)(=O)c1ccc(Cl)cc1)C(=O)NN (configuration not stated) | > 100 µM (inactive) | > 100 µM (inactive) | > 100 µM (inactive) | > 100 µM (inactive) | > 100 µM (inactive) | > 100 µM (inactive) | > 100 µM (inactive) | > 100 µM (inactive) | > 100 µM (inactive) | > 100 µM (inactive) | > 100 µM (inactive) | > 100 µM (inactive) |  | > 100 µM (inactive) | > 100 µM (inactive) | > 100 µM (inactive) | > 100 µM (inactive) | > 100 µM (inactive) | > 100 µM (inactive) | > 100 µM (inactive)
Cn1c2ccccc2c(=O)c2cccc(C(=O)NCC(=O)O)c21 | > 100 µM (inactive) | > 100 µM (inactive) | > 100 µM (inactive) | > 100 µM (inactive) | > 100 µM (inactive) | > 100 µM (inactive) |  | 85.1 µM (inactive) | > 100 µM (inactive) | > 100 µM (inactive) | > 100 µM (inactive) | 60.3 µM (inactive) | > 100 µM (inactive) | > 100 µM (inactive) | > 100 µM (inactive) | > 100 µM (inactive) | > 100 µM (inactive) | > 100 µM (inactive) | > 100 µM (inactive) | 88.9 µM (inactive)
NNc1ncnc2cccc(Cl)c12 | > 100 µM (inactive) | > 100 µM (inactive) | > 100 µM (inactive) | > 100 µM (inactive) | > 100 µM (inactive) | > 100 µM (inactive) | > 100 µM (inactive) | > 100 µM (inactive) | > 100 µM (inactive) | 2.02 µM (inactive) | > 100 µM (inactive) | > 100 µM (inactive) |  | > 100 µM (inactive) | > 100 µM (inactive) | > 100 µM (inactive) | > 100 µM (inactive) | > 100 µM (inactive) | > 100 µM (inactive) | > 100 µM (inactive)
CC1=NN(c2cccc(Cl)c2)C2(SCC(=O)N2c2nc3ccccc3s2)/C1=C\c1ccc(N(C)C)cc1 (configuration not stated) | 43.8 µM (inactive) |  | 26.1 µM (inactive) | > 100 µM (inactive) | 88.7 µM (inactive) | > 100 µM (inactive) | > 100 µM (inactive) | 54.7 µM (inactive) | 40.7 µM (inactive) |  | 31.8 µM (inactive) | > 100 µM (inactive) | 44.2 µM (inactive) | 38.7 µM (inactive) | 58.5 µM (inactive) | 33 µM (inactive) | 56.8 µM (inactive) | > 100 µM (inactive) | > 100 µM (inactive) | 
O=C1Nc2ccccc2/C1=N/NC(=S)N1CCCCC1 | 0.301 µM (active) | 0.428 µM (active) | 0.397 µM (active) | 1.91 µM (inactive) | 1.27 µM (inactive) | 0.216 µM (active) |  | 0.138 µM (active) | 0.393 µM (active) | 0.234 µM (active) | 1.39 µM (inactive) | 0.0415 µM (active) | 0.299 µM (active) | 0.493 µM (active) | 0.675 µM (active) | 0.295 µM (active) |  | 0.592 µM (active) | 0.0841 µM (active) | 1.52 µM (inactive)
CC(C)(C)OC(=O)NCCNCCNc1ccccc1 | > 100 µM (inactive) | > 100 µM (inactive) | > 100 µM (inactive) | 90.8 µM (inactive) | > 100 µM (inactive) | > 100 µM (inactive) |  | > 100 µM (inactive) | > 100 µM (inactive) | > 100 µM (inactive) | > 100 µM (inactive) | > 100 µM (inactive) | > 100 µM (inactive) |  | > 100 µM (inactive) | > 100 µM (inactive) | > 100 µM (inactive) | > 100 µM (inactive) | > 100 µM (inactive) | 58.2 µM (inactive)
CC[C@]12C=CCN3CCC4(c5cc(/N=N/c6ccccc6)c(OC)cc5N(C)[C@H]4[C@@](O)(C(=O)OC)[C@@H]1OC(C)=O)[C@@H]32 (some centres not stated) | 16.9 µM (inactive) | 17.5 µM (inactive) | 16.1 µM (inactive) | 17.6 µM (inactive) | 17.9 µM (inactive) | 16.4 µM (inactive) | 17.3 µM (inactive) | 17.3 µM (inactive) | 16.2 µM (inactive) | 17.8 µM (inactive) | 15.3 µM (inactive) | 20.4 µM (inactive) | 19.2 µM (inactive) | 18.2 µM (inactive) | 19.4 µM (inactive) | 17.6 µM (inactive) | 16.6 µM (inactive) | 14.6 µM (inactive) | 18.7 µM (inactive) | 
O=C(O)CCC(NC(=O)c1ccc(Oc2nc3ccccc3nc2-c2ccccc2)cc1)C(=O)O (configuration not stated) | > 100 µM (inactive) | > 100 µM (inactive) | > 100 µM (inactive) | > 100 µM (inactive) | > 100 µM (inactive) | > 100 µM (inactive) | > 100 µM (inactive) | > 100 µM (inactive) | > 100 µM (inactive) | > 100 µM (inactive) | > 100 µM (inactive) | > 100 µM (inactive) |  | > 100 µM (inactive) | > 100 µM (inactive) | > 100 µM (inactive) | > 100 µM (inactive) | > 100 µM (inactive) | > 100 µM (inactive) | > 100 µM (inactive)
O=C1CC(CC(=O)c2ccc(Br)cc2)C(O)=C1C(=O)c1ccc(Br)cc1 (configuration not stated) | > 100 µM (inactive) | > 100 µM (inactive) | > 100 µM (inactive) | > 100 µM (inactive) | > 100 µM (inactive) | 54.2 µM (inactive) | > 100 µM (inactive) | > 100 µM (inactive) | 72.9 µM (inactive) | 69.7 µM (inactive) | 87.7 µM (inactive) | > 100 µM (inactive) | > 100 µM (inactive) | 87.1 µM (inactive) | 44.3 µM (inactive) | > 100 µM (inactive) | > 100 µM (inactive) | 57.9 µM (inactive) | 11.5 µM (inactive) | 
